What was measured:
HEL cells = assay: HEL cell growth inhibition by fresh or aged drug stocks (stability); type: cell-based, human; details: stocks stored two to three years at −20° Celsius; 2.5, 5, 10, 20 μM, 24 hours
Description: Fresh or aged stocks of compounds 1 and 2 were tested for the ability to inhibit HEL cell growth at 2.5, 5, 10, and 20 μM of each drug after 24 hours (FIG. 19A-FIG. 19B).
The CellTiter Glo® assay was performed using HEL cells seeded at 1000 cells/well of a 96-well plate. The “fresh” drug stocks were obtained frozen (stored at −20° Celsius) within days of executing the proliferation experiment for which results are shown. The “aged” drug stocks were obtained from freeze-thawed stocks serially diluted and stored at −20° Celsius in the laboratory. The “aged” stocks were stored between at least two years to three years at −20° Celsius with little to no freeze-thaw cycles prior to execution of the proliferation experiment for which results are shown. “Aged” stocks may be stored for several years (e.g., at least one year, at least two years, at least three years, at least four years or more) at −20° Celsius prior to use.

UCHL1 = UCHL1 (Homo sapiens (Human), UniProt P09936); assay: UCHL1 biochemical inhibition (ubiquitin hydrolase activity, purified enzyme)
Sequence of UCHL1 (P09936 whole entry, species assumed): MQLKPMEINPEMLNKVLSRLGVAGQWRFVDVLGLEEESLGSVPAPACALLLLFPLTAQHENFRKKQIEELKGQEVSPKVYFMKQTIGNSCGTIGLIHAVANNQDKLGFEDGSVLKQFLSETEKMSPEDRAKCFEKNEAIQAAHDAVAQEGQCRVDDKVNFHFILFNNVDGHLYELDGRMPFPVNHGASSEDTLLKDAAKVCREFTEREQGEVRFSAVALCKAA

USP30 = USP30 (Homo sapiens (Human), UniProt Q70CQ3); assay: USP30 biochemical IC50
Sequence of USP30 (Q70CQ3 whole entry, species assumed): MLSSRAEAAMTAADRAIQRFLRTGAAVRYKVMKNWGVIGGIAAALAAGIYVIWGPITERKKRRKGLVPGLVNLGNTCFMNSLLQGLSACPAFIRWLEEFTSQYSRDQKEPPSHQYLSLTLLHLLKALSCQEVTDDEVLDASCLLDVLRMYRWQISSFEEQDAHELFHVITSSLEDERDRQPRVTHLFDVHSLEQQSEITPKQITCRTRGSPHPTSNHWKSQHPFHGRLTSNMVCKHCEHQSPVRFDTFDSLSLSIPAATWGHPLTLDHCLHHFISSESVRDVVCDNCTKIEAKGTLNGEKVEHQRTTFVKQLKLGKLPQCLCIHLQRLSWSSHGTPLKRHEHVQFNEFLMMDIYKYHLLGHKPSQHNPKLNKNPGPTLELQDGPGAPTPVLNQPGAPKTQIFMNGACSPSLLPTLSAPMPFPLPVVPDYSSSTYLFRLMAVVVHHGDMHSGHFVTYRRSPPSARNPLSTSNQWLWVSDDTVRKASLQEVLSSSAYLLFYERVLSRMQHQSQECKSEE

[1] = system: native DUBs (UCHL1, USP30 and JOSD1); assay: Competitive activity-based protein profiling with quantitative mass spectrometry in HEK-293T lysates; type: binding; details: block of labeling by DUB activity-based probes
Description: Activity Based Protein Profiling (ABPP) assay. DUB targets were investigated using competitive ABPP with quantitative mass spectrometry. The ability to block labeling of 50 DUBs by ubiquitin-based DUB activity-based probes was quantitatively measured in HEK-293T lysates.
DUB ABPP of Compound Targets. Activity-based probes biotin-Ub-PA (UbiQ-076) and biotin-Ub-VME (UbiQ-054) were obtained from UbiQ Bio. DUB Activity based protein profiling was performed using conditions modified from those in Schauer, et al., 2020, Scientific Reports, 10:1-15, based on work by Lawson, et al., 2017 Oncotarget, 8:51296-316. HEK 293T cells were lysed (50 mM Tris pH 8.0, 150 mM NaCl, 5 mM MgC2, 0.5 mM EDTA, 0.5% NP-40, 10% glycerol, 1 mM tris(2-carboxyethyl)phosphine (TCEP), protease and phosphatase inhibitors) and the lysate was clarified by centrifugation, then diluted to 10 mg/mL. 200 μL aliquots were incubated at the indicated compound concentrations or DMSO for 5 hours at room temperature, final DMSO concentration 0.5%. Afterwards, the treated lysates were incubated with 1 μM each of Biotin-Ub-PA and Biotin-Ub-VME for 90 minutes at room temperature. […]
Specifically, quantitative mass spectrometry was utilized to measure the ability of compounds 1 and 2 to block labeling of […] native DUBs by ubiquitin-based DUB activity-based probes in HEK-293T lysates. […]

Q: `Cc1noc(C)c1-c1cccc2nc(NC(=O)[C@H]3CCN(C#N)C3)sc12` [Compound 2, (S)-1-cyano-N-(7-(3,5-dimethylisoxazol-4-yl)benzo[d]thiazol-2-yl)pyrrolidine-3-carboxamide] was tested. Which “stability: growth inhibition by aged stocks versus fresh stocks” value (HEL cells) did it give?
A: comparable cell growth inhibition

Q: What about the “UCHL1 biochemical IC50 (range in words)” value (UCHL1) of the same compound?
A: several hundred

Q: What about the “USP30 biochemical IC50 (range in words)” value (USP30) of the same compound?
A: several hundred

Q: What about the “target engagement of UCHL1, USP30 and JOSD1” value [1] of the same compound?
A: dose-dependent target engagement
